Patent publication US20180040391A1, “GAS-INSULATED MEDIUM-OR HIGH-VOLTAGE ELECTRICAL APPARATUS INCLUDING HEPTAFLUOROISOBUTYRONITRILE AND TETRAFLUOROMETHANE” (General Electric Technology GmbH, priority 2015, published 2018)
Like-named read-outs stand apart in the source and are kept apart here.

How the values were obtained:
[1] = fluids of WO 2012/080246; cited from earlier work
[2] = saturated vapor pressure of i-C3F7CN and corresponding pressure raised to 20° C.; assay type: physicochemical
Protocol: However, since equipment is usually filled with gas at ambient temperature, the pressure to which reference is made in order to fill the equipment with heptafluoroisobutyronitrile is the pressure PTfill that corresponds, at the filling temperature, e.g. 20° C., to the PVS presented by said compound at the lowest utilization temperature Tmin of said equipment. This correspondence is given, for each compound, by the formula: […]
with Tmin expressed in kelvins.
By way of example, the Table II below gives the saturated vapor pressures, referenced PVSi-C3F7CN and expressed in hectopascals, presented by heptafluoroisobutyronitrile at temperatures of 0° C., −5° C., −10° C., −15° C., −20° C., −25° C., −30° C., −35° C., and −40° C., as well as the pressures, referenced P and expressed in hectopascals, which correspond to those saturated vapor pressures raised to 20° C.

[3] = boiling point (ASTM D1120-94); assay type: physicochemical; conditions: at 1013 hPa
Protocol: (i) a boiling point of −4.7° C. at 1013 hectopascals (hPa) (boiling point measured in accordance with ASTM D1120-94 “Standard Test Method of Boiling Point of Engine Coolants”);
(i′) a boiling point of −127.8° C. at 1013 hPa (boiling point measured in accordance with ASTM D1120-94);

## O=C(C(F)(F)F)C(F)(C(F)(F)F)C(F)(F)F [fluoroketone C5]
[1]
  boiling point: 23 °C

## O=C(C(F)(F)C(F)(F)F)C(F)(C(F)(F)F)C(F)(F)F [fluoroketone C6]
[1]
  boiling point: 49 °C

## N#CC(F)(C(F)(F)F)C(F)(F)F [i-C3F7CN, 2,3,3,3-tetrafluoro-2-trifluoromethyl propanenitrile]
[2]; 0° C.
  PVSi-C3F7CN saturated vapor pressure: 1177 hPa
[2]; PVS at 0° C. raised to 20° C.
  Pi-C3F7CN pressure corresponding to the saturated vapor pressure raised to 20° C.: 1264 hPa
[2]; PVS at −5° C. raised to 20° C.
  Pi-C3F7CN pressure corresponding to the saturated vapor pressure raised to 20° C.: 1058 hPa
[2]; PVS at −10° C. raised to 20° C.
  Pi-C3F7CN pressure corresponding to the saturated vapor pressure raised to 20° C.: 877 hPa
[2]; PVS at −15° C. raised to 20° C.
  Pi-C3F7CN pressure corresponding to the saturated vapor pressure raised to 20° C.: 720 hPa
[2]; PVS at −20° C. raised to 20° C.
  Pi-C3F7CN pressure corresponding to the saturated vapor pressure raised to 20° C.: 583 hPa
[2]; PVS at −25° C. raised to 20° C.
  Pi-C3F7CN pressure corresponding to the saturated vapor pressure raised to 20° C.: 466 hPa
[2]; PVS at −30° C. raised to 20° C.
  Pi-C3F7CN pressure corresponding to the saturated vapor pressure raised to 20° C.: 368 hPa
[2]; PVS at −35° C. raised to 20° C.
  Pi-C3F7CN pressure corresponding to the saturated vapor pressure raised to 20° C.: 286 hPa
[2]; PVS at −40° C. raised to 20° C.
  Pi-C3F7CN pressure corresponding to the saturated vapor pressure raised to 20° C.: 218 hPa
[2]; −5° C.
  PVSi-C3F7CN saturated vapor pressure: 968 hPa
[2]; −10° C.
  PVSi-C3F7CN saturated vapor pressure: 788 hPa
[2]; −15° C.
  PVSi-C3F7CN saturated vapor pressure: 634 hPa
[2]; −20° C.
  PVSi-C3F7CN saturated vapor pressure: 504 hPa
[2]; −25° C.
  PVSi-C3F7CN saturated vapor pressure: 395 hPa
[2]; −30° C.
  PVSi-C3F7CN saturated vapor pressure: 305 hPa
[2]; −35° C.
  PVSi-C3F7CN saturated vapor pressure: 232 hPa
[2]; −40° C.
  PVSi-C3F7CN saturated vapor pressure: 173 hPa
[3]
  boiling point: −4.7 °C
